# Reference: patent US12668589B2, “N-formamidopyrazoline derivative as P2X3 receptor antagonist and use thereof” (HANGZHOU WESTAN PHARMACEUTICAL TECHNOLOGY CO., LTD, priority 2020, dated 2026)
# Columns and labels:
# [1] = molecular target: T1, human P2X2/3 (Homo sapiens, UniProt P56373+Q9UBL9); assay: Inhibitory activity against human P2X2/3 (electrophysiological method); assay type: cell-based; conditions: read-out: hP2X2/3 (IC50)
# T1 construct: expressed in transfected cells; host or cells: HEK293
# T1 sequence (P56373 1-397): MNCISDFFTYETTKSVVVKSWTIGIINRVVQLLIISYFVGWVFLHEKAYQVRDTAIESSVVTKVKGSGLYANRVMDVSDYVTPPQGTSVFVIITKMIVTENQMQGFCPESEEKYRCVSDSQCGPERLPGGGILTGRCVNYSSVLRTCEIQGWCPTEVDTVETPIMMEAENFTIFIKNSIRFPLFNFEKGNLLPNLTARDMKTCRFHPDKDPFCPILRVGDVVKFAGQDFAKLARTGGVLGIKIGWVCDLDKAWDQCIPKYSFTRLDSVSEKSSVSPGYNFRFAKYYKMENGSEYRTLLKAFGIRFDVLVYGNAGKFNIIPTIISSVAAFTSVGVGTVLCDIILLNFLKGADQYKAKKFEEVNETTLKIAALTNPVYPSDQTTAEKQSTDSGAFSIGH
# T1 sequence (Q9UBL9 1-471): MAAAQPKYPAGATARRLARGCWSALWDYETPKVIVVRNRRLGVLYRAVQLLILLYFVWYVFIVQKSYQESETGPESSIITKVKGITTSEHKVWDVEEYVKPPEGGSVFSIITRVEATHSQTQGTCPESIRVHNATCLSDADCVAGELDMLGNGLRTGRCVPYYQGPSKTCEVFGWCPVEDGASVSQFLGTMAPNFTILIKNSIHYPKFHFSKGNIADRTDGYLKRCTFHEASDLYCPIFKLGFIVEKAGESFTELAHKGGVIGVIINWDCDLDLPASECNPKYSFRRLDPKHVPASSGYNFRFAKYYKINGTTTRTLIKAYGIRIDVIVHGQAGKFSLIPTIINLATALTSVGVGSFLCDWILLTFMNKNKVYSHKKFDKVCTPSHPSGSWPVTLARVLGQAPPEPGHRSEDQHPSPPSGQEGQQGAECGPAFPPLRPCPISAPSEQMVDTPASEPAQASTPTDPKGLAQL
# [2] = tested on: taste of SD rats; assay: Rat taste test (quinine water / tap water drinking); assay type: in vivo; conditions: 10 mg/kg intraperitoneal injection; for Water drinking amount, Tap water: free drinking 15 minutes, amounts measured to the nearest 0.1 mL; for Water drinking amount, Sum: tap plus quinine water; for Water drinking amount, Sum / Water drinking amount, Quinine: 15 minutes, measured to the nearest 0.1 mL; for Water drinking amount, Quinine: water with 0.3 mM quinine hydrochloride
# Procedure: Experimental purpose: to observe an effect of title compounds on taste of SD rats.
# • 1.1) Animals and grouping: 40 male SD rats, with about 300 grams per rat. […] A bottle of normal drinking water and a bottle of drinking water containing 0.3 mM quinine hydrochloride were placed in each cage at the same time, and left and right positions where the two bottles of water were placed in all animal feeding cages were the same. After the animals were allowed to freely drink water for 15 minutes, drinking amounts of the two bottles of water were measured respectively to the nearest 0.1 mL. • 1.5) Data statistics: drinking amounts of quinine bitter water and tap water and a total water drinking amount thereof as well as a percentage of quinine water in the total water drinking amount were counted respectively. Water drinking amounts of the bitter water of animals in each group were compared. Whether differences between groups were significant was compared by analysis of variance. 2) Experimental Results
# [3] = Liver microsomal enzyme stability test; assay type: in vitro ADME; conditions: Human liver microsomes 0.5 mg/mL, 1 μM compound, 1 mM NADPH, 37° C.; for half-life at 1 μM: read-out: t1/2 (=0.693/k, min)
# Procedure: An LC-MS/MS method, wherein A liquid phase method adopts a gradient elution method. Chromatographic Column: ACQUITY UPLC® BEH C18 (2.1 mm×50 mm, 1.7 μm); Flow Rate: 0.35 mL/min; Injection Volume: 1 μL (YS001), 3 μL (testosterone); Column Temperature: 40° C.; Automatic Sampler Temperature: 4° C.; Mobile Phase Compositions: mobile phase A: 0.1% formic acid water, and mobile phase B: acetonitrile. Mass spectrometry conditions adopt an ESI source, and positive ion and multiple reaction monitoring (MRM) modes were used for mass spectrometry analysis.
# Liver microsome incubation samples were taken, in which 400 μL of an acetonitrile solution containing an internal standard (1 ng/mL loratadine) was added for a termination reaction. Even vortex mixing was conducted at 2,500 rpm. Centrifuging was conducted for 10 minutes at 20,000 rcf at 4° C. Supernatants were taken into clean lined tubes. Contents of prototype drugs were detected by LC-MS/MS.
# Metabolic rate test: human liver microsomes were taken, unfrozen and thawed on ice, and gently shaken evenly. […] 80 μL of the above solution was pipetted, and pre-incubated for 5 minutes in a 37° C. water bath, then, 20 μL of a 5 mM NADPH solution was added, and incubating was conducted in a 37° C. water bath. […] After reaction for 0, 10, 30, 60, and 90 minutes, the reaction was terminated with 4 times the volume of acetonitrile (containing 1 ng/mL internal standard loratadine). Even vortex mixing was conducted. High-speed centrifuging was conducted for 10 minutes at 20,000 rcf at 4° C. Supernatants were taken for LC-MS/MS detection. Each incubation sample was subjected to a parallel test in triplicate. Positive control was metabolic samples of microsomes of corresponding species to a positive drug testosterone (1 μM). The reaction was terminated with 4 times the volume of acetonitrile (containing 1 ng/mL internal standard loratadine). Incubation time points were 0, 30, 60 minutes.
# Analyst 1.6.3 software was used for data collecting. After integration parameters were optimized, target chromatographic peaks were automatically integrated, individual chromatographic peaks were not allowed to be integrated separately or manually, and retention time and a peak area were calculated. Data was collected by Analyst 1.6.3, and subjected to integration processing to obtain the retention time and the peak area, and a peak area ratio of an analyte to an internal standard was calculated. Then, Microsoft Office Excel was used for secondary processing to calculate a half-life period t1/2 and a clearance rate CLint thereof. A residual percentage (% Control) of tested compounds was calculated from a ratio of a concentration of a non-zero time point sample to a concentration of a zero-time sample. Ln (% Control) was plotted against incubation time and subjected to linear fitting. An elimination constant (ke, 1/min), an elimination half-life period (t1/2, min) and an in-vitro intrinsic clearance rate (CLint, μL/(mg·min)) of the tested compounds were calculated. T1/2=0.693/ke, CLint=ke/Cprotein (Note: ke is a slope, and Cprotein is a protein concentration.)
# [4] = molecular target: T2, human P2X3 (Homo sapiens, UniProt P56373); assay: cell-based
# T2 sequence (P56373 1-397): T1 sequence (P56373 1-397)
# Procedure: An HEK293 cell line was used as cells. HEK293 cells were placed in a 37° C. incubator with 5% CO2 for culture. Passage was conducted when the cells grew to a density of 80% to 90%. A culture medium in an original 60 mm culture dish was discarded. After the cells were washed 3 times with a sterilized PBS solution, and the solution was blotted up. […] After the trypsin was blotted up, 3 mL of a cell culture medium was added to resuspend the cells. 0.5 mL of a resuspension solution was taken to be added into a new culture dish, and an total culture solution was supplemented to 5 mL. The culture dish was gently shaken to distribute the cells evenly, and then placed in a 37° C. incubator with 5% CO2 for culture.
# First, treated slides were spread in a small 35 mm culture dish. 100 μL of resuspended cells were added, and then a total amount of a culture medium was supplemented to 2 mL. Target genes were transferred into the HEK293 cell line by adopting a calcium transfection method. Small dishes to be transfected were subjected to medium change 1 hour before transfection. 2 mL of a fresh cell culture solution was added. A 1.5 mL EP tube was taken, 200 μL of a 0.25 M CaCl2) solution was added, and 3 μg of plasmids to be transfected were added, and even mixing was conducted to form a DNA-CaCl2 solution. […] A pipette tip was used for mixing while adding. After adding all, gentle blowing and beating were conducted 8 to 10 times. After still standing for 5 minutes, they were added into small dishes. The small dishes were shaken slightly to mix the solution evenly, and the placed in a cell incubator. Culture mediums were replaced after 8 to 10 hours. Electrophysiological experiments were performed 24 to 48 hours after transfection.
# Electrophysiological recording electrodes were obtained by two-step pulling by using an electrode puller (PP-10, Narishige). After an internal solution is injected into the electrodes, a water inlet resistance is 3 to 5 MΩ. During the experiment, a high potassium salt internal solution containing nystatin (K2SO4 of 75 mM, KCl of 120 mM, MgSO4 of 5 mM, HEPES of 10 mM, adjusting pH to 7.2 with Tris-base, and used after filtration) was used as an electrode internal solution. After the cells were sealed by the electrodes, there was no need to further break cell membranes in a sucked manner, but the cell membranes were bored through the perforation of the nystatin to the cell membranes, to form a hole channel. […] A clamping voltage was −60 mV, a sampling frequency was 10 kHz, and filtering was conducted at 2 kHz.
# A working concentration of a P2X3 receptor agonist ATP was 1 μM, and an interval time between two times of ATP administrations was 10 minutes.
SMILES,IC50 [1] [nM],"Water drinking amount, Tap water [2]","Water drinking amount, Sum [2]","Water drinking amount, Quinine [2]","Clint, microsome (=k/Cprotein, μL × min^−1 × mg^−1 proteins) [3]","ke (=−slope, min^−1) [3] [min⁻¹]",half-life at 1 μM [3] [min],IC50 [4] [nM]
Cc1ccc(C2=NN(C(=O)N[C@H](C)c3ccc(C(F)(F)F)nc3)C[C@@H]2N2CCOC2=O)cc1 [Compound 22],2420,12.26,14.13,1.87,21.4 μL × min^−1 × mg^−1 proteins,0.0107,64.8,56
"CCOC(=O)N(C)[C@H]1CN(C(=O)N[C@H](C)c2cnc(C(F)(F)F)nc2)N=C1c1ccc(C)cc1 [Compound 4, (S)-4-(N-methyl-N-ethoxycarbonylamino)-3-(4-methylphenyl)-N-((R)-1-(2-(trifluoromethyl)pyrimidin-5-yl)ethyl)-4,5-dihydro-1H-pyrazol-1-carboxamide]",–,11.84,13.87,2.03,3.8 μL × min^−1 × mg^−1 proteins,0.0019,364,–
